Measured values as given in PubChem BioAssay (NCI).
Where “and” joins values, the source holds several entries; their conditions need not be identical. Equal entries are not always repeated.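 1) Cells in 96-well plates. 2) Compound, 48 h, 5 concentrations. 3) Linear interpolation between surrounding doses. 4) Unreached endpoint = highest concentration. Here, GI50 denotes the concentration required for 50% inhibition of growth. TGI marks complete inhibition of growth.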

What was measured:
Assay in all cases: inhibition of tumour cell growth, NCI panel, 48 h
786-0 renal = system: 786-0 renal
A498 renal = system: A498 renal
DU-145 prostate = system: DU-145 prostate
HT29 colon = system: HT29 colon
IGROV1 ovarian = system: IGROV1 ovarian
LOX IMVI melanoma = system: LOX IMVI melanoma
M14 melanoma = system: M14 melanoma
SK-MEL-2 melanoma = system: SK-MEL-2 melanoma
SK-MEL-5 melanoma = system: SK-MEL-5 melanoma
TK-10 renal = system: TK-10 renal

SMILES | GI50 (786-0 renal) [µM] | TGI (786-0 renal) | GI50 (A498 renal) [µM] | TGI (A498 renal) | GI50 (DU-145 prostate) [µM] | TGI (DU-145 prostate) | GI50 (HT29 colon) [µM] | TGI (HT29 colon) | GI50 (IGROV1 ovarian) | TGI (IGROV1 ovarian) | GI50 (LOX IMVI melanoma) [µM] | TGI (LOX IMVI melanoma) | GI50 (M14 melanoma) [µM] | TGI (M14 melanoma) | GI50 (SK-MEL-2 melanoma) [µM] | TGI (SK-MEL-2 melanoma) | GI50 (SK-MEL-5 melanoma) [µM] | TGI (SK-MEL-5 melanoma) | GI50 (TK-10 renal) | TGI (TK-10 renal)
CS(=O)(=O)c1nccc(-c2c(-c3cccc(OCc4ccc(F)cc4)c3)nc3sccn23)n1 | 16.8 | > 100 µM | 18.2 | 65.2 µM | 1.92 | 3.41 µM | 53.9 | > 100 µM | 11.2 µM | > 100 µM | 4.7 | > 100 µM | 25.9 | > 100 µM | > 100 | > 100 µM | 2.51 | > 24.2 µM | > 94.2 µM | > 100 µM
COc1ccc(-c2cc3c4c(nc5ccccc5c4c2)CC(c2cc(OC)c(OC)c(OC)c2)O3)cc1 (stereo not drawn) | 1.92 | 3.74 µM | 3.39 | 13.4 µM | 2.96 | > 100 µM | 3.07 | > 100 µM | 2.66 µM | 12.6 µM | 1.92 | 6.81 µM | 2.96 | 28.7 µM | 3.44 | 14.9 µM | 2.67 | 8.27 µM | 2.37 µM | 5.28 µM
O=S(=O)(c1cccc(C(F)(F)F)c1)N1c2ccccc2-n2cccc2C1c1cccnc1 (stereo not drawn) | – | > 62.3 µM | – | > 64 µM | – | > 55.2 µM | – | > 58 µM | – | > 100 µM | – | > 68.7 µM | – | > 55.8 µM | – | > 52.2 µM | – | > 43 µM | – | > 85.1 µM
C=C1C(=O)O[C@H]2[C@H]1CC/C(COC(=O)OCCCCCOC(=O)OC/C1=C/CC[C@@]3(C)O[C@H]3[C@H]3OC(=O)C(=C)[C@@H]3CC1)=C\CC[C@@]1(C)O[C@@H]21 | 0.266 | 0.93 µM | 1.5 | 3.21 µM | 1.04 | 2.3 µM | 0.242 | 0.726 µM | 1.67 µM | 4.37 µM | 0.241 | 0.654 µM | 0.406 | 1.81 µM | 1.37 | 3.31 µM | 1.53 | 3.07 µM | 0.222 µM | 0.59 µM
Brc1c[n+](Cc2ccc3ccccc3c2)cn1Cc1ccc2ccccc2c1 | 1.75 | 3.33 µM | 1.88 | 5.09 µM | 2.54 | 7.75 µM | 1.19 | 3.35 µM | 0.676 µM | 2.08 µM | 1.42 | 2.74 µM | 1.4 | 2.92 µM | 1.81 | 3.9 µM | 1.6 | 2.96 µM | 1.86 µM | 5.16 µM
c1ccc2c(c1)O[As](O[As]1Oc3ccccc3O1)O2 | 3.66 | 15.4 µM | 1.6 | 5.64 µM | 3.96 | 15.2 µM | 2.75 | 8.74 µM | 1.56 µM | 10.5 µM | 2.3 | 10.3 µM | 3.18 | 15.3 µM | 2.76 | 8.61 µM | 1.55 | 3.69 µM | 4.75 µM | 13.3 µM
O=C1Nc2ccc(F)c3c(OCCO)cc(-c4ccc[nH]4)c1c23 | 2.44 | 9.26 µM | 0.896 | 4.24 µM | 1.97 | 10.3 µM | 1.99 | 9.95 µM | 1.86 µM | 10.4 µM | 1.19 | 5.38 µM | 1.4 | 12.4 µM | 1.4 | 6.51 µM | 2.45 | 6.29 µM | 1.41 µM | 6.42 µM
COc1ccccc1-c1cc2c3c(nc4ccccc42)C(=O)c2cccnc2-c3n1 | 15.5 | 29.7 µM | 18.9 | 47.4 µM | 13.8 | 28.5 µM | 15.3 | 29.9 µM | 3.78 µM | 18.1 µM | 2.13 | 4.89 µM | 5.1 | 17.3 µM | 17.5 | 47.8 µM | 12.5 | 25.4 µM | 14.8 µM | 29.6 µM
COc1ccc2c(c1)C(=O)c1c-2c(NCCCN(C)C)nc2ccccc12 | 4.24 | 18.7 µM | 11.3 | 23.8 µM | 6.67 | 19.5 µM | 1.02 | 2.82 µM | 6.99 µM | 19.9 µM | 1.44 | 2.82 µM | 5.41 | 17.9 µM | 18.4 | 34.3 µM | 3.87 | 14.4 µM | 4.33 µM | 18.3 µM
CCCOC(=O)N[C@H]1CCc2c(Br)c(OC)c(OC)c(OC)c2-c2ccc(SC)c(=O)cc21 | 0.0407 | 11.4 µM | < 0.0135 | 0.0509 µM | 0.0305 | 0.234 µM | 0.0297 | > 48 µM | 0.0377 µM | > 46.2 µM | < 0.0177 | 11.5 µM | 0.0207 | 3.67 µM | 2.44 | 37.1 µM | 0.0162 | 0.0501 µM | 4.67 µM | > 76.6 µM
Cc1c(Cl)cccc1NC(=O)CC1Sc2ccccc2NC1=O (stereo not drawn) | – | 50.9 µM and 31.7 µM | – | 38.2 µM and 37.5 µM | – | > 100 µM | – | 63.3 µM | 20 µM and 45.1 µM | 65 µM and > 100 µM | – | 83.8 µM and > 100 µM | – | 81.7 µM and 93 µM | – | 59.6 µM and 41.9 µM | – | 67.7 µM and > 100 µM | 20.8 µM and 48.2 µM | 49.6 µM and > 100 µM
O=C1Nc2ccc(Cl)cc2/C1=C\c1c(-c2ccc(F)cc2)nc2ccccn12 | 2.18 | 5.2 µM | 1.21 | 4.51 µM | 2.67 | 7.15 µM | 2.33 | 5.41 µM | 3.06 µM | 8.58 µM | 2.06 | 4.89 µM | 3.02 | 8.62 µM | 2.66 | 6.17 µM | 2.38 | 7.45 µM | 2.95 µM | 7.39 µM
COc1ccc2c(c1)O/C(=C\c1cccc(OCC(=O)Nc3nc4ccccc4s3)c1)C2=O | > 66.4 | > 100 µM | 10.1 | > 93.3 µM | 3.57 | 21.9 µM | > 58.7 | > 100 µM | 0.121 µM | 0.303 µM | 0.328 | 1.05 µM | 36.3 | > 100 µM | 11.5 | 33.3 µM | > 51.5 | > 100 µM | > 54.3 µM | > 100 µM
O=C(c1ccccc1)c1ccc(-c2ccc(O)cc2)cc1 | 17.8 | > 66.8 µM | 13 | > 58.9 µM | 5.62 | 29.4 µM | 31.7 | > 100 µM | 3.69 µM | 22.7 µM | 11.1 | 28.8 µM | 2.04 | > 100 µM | 6.95 | 61 µM | 1.05 | 11.8 µM | 8.43 µM | 50.7 µM
COC1/C=C/O[C@@]2(C)Oc3c(C)c(O)c4c(O)c(cc(O)c4c3C2=O)NC(=O)/C(C)=C\C=C\[C@H](C)C(O)[C@@H](C)[C@@H](O)[C@@H](C)[C@H](OC(C)=O)[C@@H]1C (stereo partly drawn) | 4.29 | 15.9 µM and 29.5 µM | – | 96.9 µM | 12.3 | 26.8 µM and 54.5 µM | 11.6 | 24.3 µM and 34.5 µM | 16 µM | 29.5 µM and 56.3 µM | – | 26.1 µM and 29.5 µM | 13.8 | 27 µM and 35.7 µM | – | 30 µM and 45.2 µM | 25.6 | 67.6 µM and 88.1 µM | – | 32.1 µM and 39.1 µM
CCC(=O)Sc1ccccc1C(=O)Nc1ccc(Cl)cc1 | 15 | 41.8 µM | 9.19 | 38.5 µM | 22.1 | 74.3 µM | 7.09 | 44.5 µM | 13.7 µM | > 100 µM | 5.91 | 24.4 µM | 6.42 | 43.9 µM | 25.7 | > 100 µM | 4.22 | 17.4 µM | 22.9 µM | 76.9 µM
C=CC1CC12C(=O)C1OC2(C)C2C(=O)c3ccccc3C(=O)C12 (stereo not drawn) | > 52.5 | > 100 µM | > 100 | > 100 µM | 72.7 | > 100 µM | > 61.6 | > 100 µM | > 69.3 µM | > 100 µM | 12.7 | 68.7 µM | > 100 | > 100 µM | > 86 | > 100 µM | 18.7 | 54.7 µM | > 49.9 µM | > 100 µM
Cc1ccc(NS(=O)(=O)c2ccc(-c3cnc(C4CC4)o3)cc2)cc1 | 6.4 | 21 µM | 2.05 | 6.83 µM | 3.99 | 16.5 µM | 2.34 | 11 µM | 3.78 µM | 17.3 µM | 4.88 | 18.2 µM | 1.56 | 11.7 µM | 5.06 | 18.8 µM | 2.43 | 8.29 µM | 9.96 µM | 22.1 µM
COC1=CC(c2ccc[nH]2)=N/C1=C\c1[nH]c(C)c(C(=O)CCC(=O)Oc2ccc3c(c2)CCC2C3CC[C@]3(C)C(=O)CC[C@@H]23)c1C (stereo partly drawn) | 6 | 39.1 µM | 7.94 | 57.4 µM | 1.58 | > 100 µM | 0.839 | > 100 µM | 8.3 µM | > 100 µM | 0.998 | 3.35 µM | 12.3 | 33.4 µM | 15.6 | 58.7 µM | 3.48 | 19.6 µM | 25.2 µM | > 92 µM
CO/N=C(\c1ccccc1)c1cnn(-c2ccccc2)c1N | > 25 | > 25 µM | > 16.8 | > 25 µM | > 25 | > 25 µM | > 25 | > 25 µM | > 25 µM | > 25 µM | > 25 | > 25 µM | > 25 | > 25 µM | > 25 | > 25 µM | > 25 | > 25 µM | > 25 µM | > 25 µM
O=C1C(=O)c2ccc(Br)cc2-c2cc(Br)ccc21 | 10.4 | > 56.3 µM | > 28.1 | > 100 µM | 7.29 | > 100 µM | > 74.3 | > 100 µM | 6.57 µM | 29.5 µM | 0.717 | 2.13 µM | 6.34 | > 66.6 µM | 10.4 | > 100 µM | 3.89 | > 33 µM | 22.7 µM | > 100 µM
